Assay results from PubChem BioAssay (NCI).
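Following 48 hours of exposure in 96-well plates, responses at five concentrations were used to interpolate endpoints linearly. GI50 = concentration required for 50% inhibition of growth. TGI: total growth inhibition.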

What was measured:
Assay in all cases: NCI tumour cell line growth inhibition, 48 h
786-0 renal = system: 786-0 renal
A498 renal = system: A498 renal
A549 NSCLC = system: A549 NSCLC
ACHN renal = system: ACHN renal
BT-549 breast = system: BT-549 breast
CAKI-1 renal = system: CAKI-1 renal
CCRF-CEM leukemia = system: CCRF-CEM leukemia
COLO 205 colon = system: COLO 205 colon
DU-145 prostate = system: DU-145 prostate
EKVX NSCLC = system: EKVX NSCLC
HCC-2998 colon = system: HCC-2998 colon
HCT-116 colon = system: HCT-116 colon
HCT-15 colon = system: HCT-15 colon
HL-60(TB) leukemia = system: HL-60(TB) leukemia
HOP-62 NSCLC = system: HOP-62 NSCLC
HOP-92 NSCLC = system: HOP-92 NSCLC
HS 578T breast = system: HS 578T breast
HT29 colon = system: HT29 colon
IGROV1 ovarian = system: IGROV1 ovarian
K-562 leukemia = system: K-562 leukemia
KM12 colon = system: KM12 colon
LOX IMVI melanoma = system: LOX IMVI melanoma
M14 melanoma = system: M14 melanoma
MALME-3M melanoma = system: MALME-3M melanoma
MCF7 breast = system: MCF7 breast
MDA-MB-231 breast = system: MDA-MB-231 breast
MDA-MB-435 = system: MDA-MB-435
MOLT-4 leukemia = system: MOLT-4 leukemia
NCI-H226 lung = system: NCI-H226 lung
NCI-H23 lung = system: NCI-H23 lung
NCI-H460 lung = system: NCI-H460 lung
NCI-H522 lung = system: NCI-H522 lung
NCI/ADR-RES ovarian = system: NCI/ADR-RES ovarian
OVCAR-4 ovarian = system: OVCAR-4 ovarian
OVCAR-5 ovarian = system: OVCAR-5 ovarian
OVCAR-8 ovarian = system: OVCAR-8 ovarian
PC-3 prostate = system: PC-3 prostate
RPMI-8226 leukemia = system: RPMI-8226 leukemia
RXF 393 renal = system: RXF 393 renal
SF-268 CNS = system: SF-268 CNS
SF-295 CNS = system: SF-295 CNS
SF-539 CNS = system: SF-539 CNS
SK-MEL-2 melanoma = system: SK-MEL-2 melanoma
SK-MEL-28 melanoma = system: SK-MEL-28 melanoma
SK-MEL-5 melanoma = system: SK-MEL-5 melanoma
SK-OV-3 ovarian = system: SK-OV-3 ovarian
SN12C renal = system: SN12C renal
SNB-19 CNS = system: SNB-19 CNS
SNB-75 CNS = system: SNB-75 CNS
SR leukemia = system: SR leukemia
SW-620 colon = system: SW-620 colon
T-47D breast = system: T-47D breast
TK-10 renal = system: TK-10 renal
U251 CNS = system: U251 CNS
UACC-257 melanoma = system: UACC-257 melanoma
UACC-62 melanoma = system: UACC-62 melanoma
UO-31 renal = system: UO-31 renal

O=C(NNc1nc2cc(F)c(F)cc2n2c(CN3CC4CNCC4C3)ccc12)c1cnccn1 (centres undefined)
GI50 (786-0 renal): 0.609 µM
TGI (786-0 renal): 12.4 µM
GI50 (A498 renal): 0.522 µM
TGI (A498 renal): 4.22 µM
GI50 (A549 NSCLC): 0.851 µM
TGI (A549 NSCLC): 10.6 µM
GI50 (ACHN renal): 0.429 µM
TGI (ACHN renal): 7.82 µM
GI50 (BT-549 breast): 2.42 µM
TGI (BT-549 breast): 13.8 µM
GI50 (CAKI-1 renal): 0.415 µM
TGI (CAKI-1 renal): 9.69 µM
GI50 (CCRF-CEM leukemia): 0.706 µM
TGI (CCRF-CEM leukemia): 27.5 µM
GI50 (COLO 205 colon): 0.874 µM
TGI (COLO 205 colon): 13.8 µM
GI50 (DU-145 prostate): 1.3 µM
TGI (DU-145 prostate): 11.8 µM
GI50 (EKVX NSCLC): 0.732 µM
TGI (EKVX NSCLC): 13.8 µM
GI50 (HCC-2998 colon): 2.74 µM
TGI (HCC-2998 colon): 16.5 µM
GI50 (HCT-116 colon): 0.588 µM
TGI (HCT-116 colon): 15.8 µM
GI50 (HCT-15 colon): 0.363 µM
TGI (HCT-15 colon): 16.2 µM
GI50 (HL-60(TB) leukemia): 1.15 µM
TGI (HL-60(TB) leukemia): 4.36 µM
GI50 (HOP-62 NSCLC): 0.459 µM
TGI (HOP-62 NSCLC): 5.23 µM
GI50 (HOP-92 NSCLC): 3.01 µM
TGI (HOP-92 NSCLC): 17.4 µM
GI50 (HS 578T breast): 3.33 µM
TGI (HS 578T breast): 20.6 µM
GI50 (HT29 colon): 0.726 µM
TGI (HT29 colon): 15.2 µM
GI50 (IGROV1 ovarian): 0.904 µM
TGI (IGROV1 ovarian): 10.8 µM
GI50 (K-562 leukemia): 0.785 µM
TGI (K-562 leukemia): > 100 µM
GI50 (KM12 colon): 0.74 µM
TGI (KM12 colon): 12.7 µM
GI50 (LOX IMVI melanoma): 0.608 µM
TGI (LOX IMVI melanoma): 6.7 µM
GI50 (M14 melanoma): 0.611 µM
TGI (M14 melanoma): 12.3 µM
GI50 (MALME-3M melanoma): 1.75 µM
TGI (MALME-3M melanoma): 9.7 µM
GI50 (MCF7 breast): 1.41 µM
TGI (MCF7 breast): 12.3 µM
GI50 (MDA-MB-231 breast): 3.65 µM
TGI (MDA-MB-231 breast): 20.6 µM
GI50 (MDA-MB-435): 2.53 µM
TGI (MDA-MB-435): 16.3 µM
GI50 (MOLT-4 leukemia): 0.764 µM
TGI (MOLT-4 leukemia): 13.6 µM
GI50 (NCI-H226 lung): 1.23 µM
TGI (NCI-H226 lung): 14.5 µM
GI50 (NCI-H23 lung): 2.47 µM
TGI (NCI-H23 lung): 14.3 µM
GI50 (NCI-H460 lung): 0.463 µM
TGI (NCI-H460 lung): 4.72 µM
GI50 (NCI-H522 lung): 2.34 µM
TGI (NCI-H522 lung): 6.26 µM
GI50 (NCI/ADR-RES ovarian): 2.6 µM
TGI (NCI/ADR-RES ovarian): 14.3 µM
GI50 (OVCAR-4 ovarian): 0.995 µM
TGI (OVCAR-4 ovarian): 20.6 µM
GI50 (OVCAR-5 ovarian): 1.75 µM
TGI (OVCAR-5 ovarian): 16.8 µM
GI50 (OVCAR-8 ovarian): 0.547 µM
TGI (OVCAR-8 ovarian): 7.83 µM
GI50 (PC-3 prostate): 1.25 µM
TGI (PC-3 prostate): 16.1 µM
GI50 (RPMI-8226 leukemia): 1.3 µM
TGI (RPMI-8226 leukemia): 11.8 µM
GI50 (RXF 393 renal): 1.27 µM
TGI (RXF 393 renal): 9.46 µM
GI50 (SF-268 CNS): 0.962 µM
TGI (SF-268 CNS): 10.8 µM
GI50 (SF-295 CNS): 0.44 µM
TGI (SF-295 CNS): 11.2 µM
GI50 (SF-539 CNS): 1.07 µM
TGI (SF-539 CNS): 4.42 µM
GI50 (SK-MEL-2 melanoma): 1.89 µM
TGI (SK-MEL-2 melanoma): 11.4 µM
GI50 (SK-MEL-28 melanoma): 2.11 µM
TGI (SK-MEL-28 melanoma): 14.5 µM
GI50 (SK-MEL-5 melanoma): 1.65 µM
TGI (SK-MEL-5 melanoma): 4.34 µM
GI50 (SK-OV-3 ovarian): 0.811 µM
TGI (SK-OV-3 ovarian): 9.06 µM
GI50 (SN12C renal): 2.06 µM
TGI (SN12C renal): 11.4 µM
GI50 (SNB-19 CNS): 2.2 µM
TGI (SNB-19 CNS): 18.8 µM
GI50 (SNB-75 CNS): 2.16 µM
TGI (SNB-75 CNS): 14.1 µM
GI50 (SR leukemia): 0.481 µM
TGI (SR leukemia): 20.5 µM
GI50 (SW-620 colon): 1.17 µM
TGI (SW-620 colon): 15.2 µM
GI50 (T-47D breast): 3.3 µM
TGI (T-47D breast): 22.9 µM
GI50 (TK-10 renal): 0.455 µM
TGI (TK-10 renal): 17 µM
GI50 (U251 CNS): 0.741 µM
TGI (U251 CNS): 11.2 µM
GI50 (UACC-257 melanoma): 2.09 µM
TGI (UACC-257 melanoma): 7.13 µM
GI50 (UACC-62 melanoma): 1.19 µM
TGI (UACC-62 melanoma): 6.28 µM
GI50 (UO-31 renal): 0.356 µM
TGI (UO-31 renal): 3.24 µM
